How the values were obtained:
Format in all cases: in vivo
Barnyard grass [1] = experiment: Herbicidal activity test for indoor pre-emergence soil treatment; design: key: level 1-9; higher = more weed remaining vs blank control; conditions: 150 g a.i./ha, visual inspection 21 days after treatment
In short: (§1)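 Pre-emergence test following NY/T 1155.3-2006: weed seeds were sown in moistened neutral sandy loam (≤2% organic matter) and covered with 0.5–2.0 cm of soil. After 24 h, the soil was sprayed with a 10% EC diluted in water at 150 g(a.i.)/ha. Damage was scored visually on a 1–9 scale at 21 days.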

Piemarker [2] = experiment: as above; design: key: level 1-9; higher = more weed remaining vs blank control; conditions: 150 g a.i./ha, visual inspection 21 days after treatment
In short: as §1

green bristlegrass [3] = experiment: as above; design: key: level 1-9; higher = more weed remaining vs blank control; conditions: 150 g a.i./ha, visual inspection 21 days after treatment
In short: as §1

Amaranthus retroflexus [4] = experiment: as above; design: key: 1-9 levels; higher = more weed remaining vs blank control; conditions: 150 g a.i./ha, visual inspection 21 days after treatment
In short: as §1

Digitaria sanguinalis [5] = experiment: as above; design: key: 1-9 levels; higher = more weed remaining vs blank control; conditions: 150 g a.i./ha, visual inspection 21 days after treatment
In short: as §1

Humulus scandens [6] = experiment: as above; conditions: 150 g a.i./ha, visual inspection 21 days after treatment
In short: as §1

Amaranthus retroflexus [7] = experiment: Herbicidal activity test for indoor post-emergence spraying on stems and leaves; design: key: grade level by weed remaining vs blank control, e.g. 5 = 10.1-15%; conditions: 150 g a.i./ha, visual inspection 21 days after treatment
In short: (§2)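 Greenhouse-grown weeds, post-emergence foliar spray (NY/T 1155.4-2006 method); visual scoring at 21 d post-treatment as levels vs. untreated blank control (e.g., level 5 = 10.1–15%, level 8 = 35.1–67.5% of control weed).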

Barnyard grass [8] = experiment: as above; design: key: grade level by weed remaining vs blank control, e.g. 5 = 10.1-15%; conditions: 150 g a.i./ha, visual inspection 21 days after treatment
In short: as §2

Digitaria sanguinalis [9] = experiment: as above; design: key: grade level by weed remaining vs blank control, e.g. 5 = 10.1-15%; conditions: 150 g a.i./ha, visual inspection 21 days after treatment
In short: as §2

Humulus scandens [10] = experiment: as above; design: key: grade level by weed remaining vs blank control, e.g. 5 = 10.1-15%; conditions: 150 g a.i./ha, visual inspection 21 days after treatment
In short: as §2

Piemarker [11] = experiment: as above; design: key: grade level by weed remaining vs blank control, e.g. 5 = 10.1-15%; conditions: 150 g a.i./ha, visual inspection 21 days after treatment
In short: as §2

green bristlegrass [12] = experiment: as above; design: key: grade level by weed remaining vs blank control, e.g. 5 = 10.1-15%; conditions: 150 g a.i./ha, visual inspection 21 days after treatment
In short: as §2

Broadleaf weed = experiment: Post-emergence herbicidal activity test in a paddy field; design: key: level scale; higher level = more weed left vs blank control; conditions: 150 g a.i./ha (penoxsulam control 250 g(a.i.)/h)
In short: (§3)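 Efficacy was visually estimated 15 and 30 days after spraying, grading weed coverage relative to an untreated neighbouring plot (level 2 = 0 to 2.5%, level 9 = 67.6 to 100%). Treatments were 150 g(a.i.)/ha from 10% emulsifiable concentrates applied at the 4-5 leaf rice stage, four repeats of 50 m^2 each.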

Cyperaceae = experiment: as above; design: key: level scale; higher level = more weed left vs blank control; conditions: 150 g a.i./ha (penoxsulam control 250 g(a.i.)/h)
In short: as §3

Gramineae = experiment: as above; design: key: level scale; higher level = more weed left vs blank control; conditions: 150 g a.i./ha (penoxsulam control 250 g(a.i.)/h)
In short: as §3

Acalypha australis = experiment: Field test for weed control in a corn field; conditions: 150 g a.i./ha, after treatment
In short: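 Herbicidal activity against weeds was assessed in corn plots by the GB/T 17980.42-2000 method. Corn at the 2–5 leaf stage received water sprays of 10% emulsifiable concentrates at 150 g(a.i.)/ha, four repeats per treatment over 20 m^2. A 25% mesotrione oil dispersion was the reference. Damage symptoms and severity were rated on levels 1-9 relative to weeds in the blank control area.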

Amaranthus retroflexus [13] = experiment: Field test for weed control in a corn field; conditions: 150 g a.i./ha, 30 days after treatment
In short: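 Post-emergence control of Amaranthus retroflexus was assessed in corn plots using the GB/T 17980.42-2000 method. Emulsifiable concentrates (10%) in water were applied by spraying at the 2- to 5-leaf crop stage on 20 m^2 plots, four replicates each, alongside a mesotrione 25% oil dispersion reference. Herbicidal activity was scored on 1-9 levels by weed amount relative to blank control areas.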

Barnyard grass [14] = experiment: Field test for weed control in a corn field; conditions: 150 g a.i./ha, 30 days after treatment
In short: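 Herbicidal activity against barnyard grass was assessed in corn field plots of 20 m^2, with four replicates per treatment. Compounds were applied as water-diluted 10% emulsifiable concentrates at 150 g(a.i.)/ha at the 2-5 leaf corn stage, with 25% mesotrione oil dispersion as the reference agent. Damage was scored on a 1-9 scale against untreated blank plots.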

Chenopodium album = experiment: Field test for weed control in a corn field; conditions: 150 g a.i./ha, after treatment
In short: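 Field weed-control testing in corn, run per GB/T 17980.42-2000, scored Chenopodium album on a 1-9 level scale, where each level matches a percentage range of weed remaining relative to the blank control area. Sprays of 10% emulsifiable concentrates in water delivered 150 g(a.i.)/ha at the corn 2-leaf to 5-leaf stage on 20 m^2 plots, four replicates each. Mesotrione 25% oil dispersion served as reference.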

Convolvulus arvensis = experiment: Field test for weed control in a corn field; conditions: 150 g a.i./ha, after treatment
In short: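 Post-emergence herbicidal activity on Convolvulus arvensis was scored in a corn field on a 1-9 scale, based on symptoms and damage severity. Each level corresponds to the weed remaining as a percentage of the blank control area. Sprays of 10% emulsifiable concentrate at 150 g(a.i.)/ha went on at the corn 2–5 leaf stage, with four replicates of 20 m^2 per treatment.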

Digitaria sanguinalis [15] = experiment: Field test for weed control in a corn field; conditions: 150 g a.i./ha, after treatment
In short: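 Field trial in a corn field following GB/T 17980.42-2000. Test compounds were formulated as 10% emulsifiable concentrates, diluted in water and sprayed post-emergence at 150 g(a.i.)/ha when corn had 2 to 5 leaves, with 4 replicates on 20 m^2 plots. Control of Digitaria sanguinalis was scored on a 1-9 scale based on weed damage relative to the untreated blank area.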

Portulaca oleracea = experiment: Field test for weed control in a corn field; conditions: 150 g a.i./ha, after treatment
In short: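 Post-emergence weed control was evaluated in a corn field by the GB/T 17980.42-2000 method. Emulsifiable concentrates (10%) in water were applied as sprays at 150 g(a.i.)/ha at the 2-5 leaf corn stage, in four replicate 20 m^2 plots. A 25% mesotrione oil dispersion served as control agent. Effects were graded 1-9 relative to weed remaining in blank control areas.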

Solanum nigrum = experiment: Field test for weed control in a corn field; conditions: 150 g a.i./ha, 30 days after treatment
In short: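 In a corn field trial based on GB/T 17980.42-2000, 10% emulsifiable concentrates diluted in water were sprayed at 150 g(a.i.)/ha at the 2 to 5 leaf stage of corn. Each treatment used 20 m^2 plots and was repeated 4 times, with 25% mesotrione oil dispersion as the reference agent. Solanum nigrum damage was scored on a 1-9 scale against blank control plots.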

goosegrass = experiment: Field test for weed control in a corn field; conditions: 150 g a.i./ha, after treatment
In short: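 In this field trial in corn, run per GB/T 17980.42-2000, test agents prepared as 10% emulsifiable concentrates were applied in water as sprays at 150 g(a.i.)/ha at the 2- to 5-leaf corn stage. Each treatment covered 20 m^2 and was repeated 4 times. Goosegrass control was scored 1-9 relative to weed remaining in blank control areas.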

green bristlegrass [16] = experiment: Field test for weed control in a corn field; conditions: 150 g a.i./ha, after treatment
In short: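 Herbicidal activity against green bristlegrass was assessed in corn field plots of 20 m^2 per GB/T 17980.42-2000. Test agents, formulated as 10% emulsifiable concentrates, were applied in water at 150 g(a.i.)/ha at the corn 2 leaves to 5 leaves stage, repeated 4 times. A 25% mesotrione oil dispersion served as the control agent, and weed damage was rated on levels 1-9.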

nutgrass flatsedge = experiment: Field test for weed control in a corn field; conditions: 150 g a.i./ha, after treatment
In short: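 Herbicidal effect on nutgrass flatsedge was measured in a field planted with corn, using the GB/T 17980.42-2000 method. Emulsifiable concentrates (10%) in water were sprayed at 150 g(a.i.)/ha during the 2-leaf to 5-leaf corn stage, on 20 m^2 plots repeated 4 times. 25% mesotrione oil dispersion was the control agent. Activity was scored from 1 to 9 by weed remaining relative to blank control plots.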

SMILES: COc1ccc(OC)c(C(=O)NCc2ccc(F)cc2)c1 [Compound A23]
- Herbicidal Activity Barnyard grass (Barnyard grass [1]): 1
- Herbicidal Activity Piemarker (Piemarker [2]): 2 (equivalent to 0 to 2.5% of the weed in the blank control area)
- Herbicidal Activity Green bristlegrass (green bristlegrass [3]): 1
- Herbicidal Activity Amaranthus retroflexus (Amaranthus retroflexus [4]): 2 (equivalent to 0 to 2.5% of the weed in the blank control area)
- Herbicidal Activity Digitaria sanguinalis (Digitaria sanguinalis [5]): 1
- Herbicidal Activity Humulus scandens (Humulus scandens [6]): 4 (equivalent to 5.1 to 10% of the weed in the blank control area)
- Herbicidal Activity Amaranthus retroflexus (Amaranthus retroflexus [7]): 1
- Herbicidal Activity Barnyard grass (Barnyard grass [8]): 1
- Herbicidal Activity Digitaria sanguinalis (Digitaria sanguinalis [9]): 1
- Herbicidal Activity Humulus scandens (Humulus scandens [10]): 1
- Herbicidal Activity Piemarker (Piemarker [11]): 1
- Herbicidal Activity Green bristlegrass (green bristlegrass [12]): 1
- Herbicidal activity 15 days after treatment Broadleaf weed (Broadleaf weed; 15 days after treatment): 1
- Herbicidal activity 30 days after treatment Broadleaf weed (Broadleaf weed; 30 days after treatment): 1
- Herbicidal activity 15 days after treatment Cyperaceae (Cyperaceae; 15 days after treatment): 1
- Herbicidal activity 30 days after treatment Cyperaceae (Cyperaceae; 30 days after treatment): 1
- Herbicidal activity 15 days after treatment Gramineae (Gramineae; 15 days after treatment): 1
- Herbicidal activity 30 days after treatment Gramineae (Gramineae; 30 days after treatment): 1
- Post-emergence weed control effect, Acalypha australis (Acalypha australis): 2 (equivalent to 0 to 2.5% of the weed in the blank control area)
- Post-emergence weed control effect, Amaranthus retroflexus (Amaranthus retroflexus [13]): 1
- Post-emergence weed control effect, Barnyard grass (Barnyard grass [14]): 2 (equivalent to 0 to 2.5% of the weed in the blank control area)
- Post-emergence weed control effect, Chenopodium album (Chenopodium album): 1
- Post-emergence weed control effect, Convolvulus arvensis (Convolvulus arvensis): 1
- Post-emergence weed control effect, Digitaria sanguinalis (Digitaria sanguinalis [15]): 2 (equivalent to 0 to 2.5% of the weed in the blank control area)
- Post-emergence weed control effect, Portulaca oleracea (Portulaca oleracea): 1
- Post-emergence weed control effect, Solanum nigrum (Solanum nigrum): 2 (equivalent to 0 to 2.5% of the weed in the blank control area)
- Post-emergence weed control effect, Goose grass (goosegrass): 2 (equivalent to 0 to 2.5% of the weed in the blank control area)
- Post-emergence weed control effect, Green bristlegrass (green bristlegrass [16]): 1
- Post-emergence weed control effect, Nutgrass flatsedge (nutgrass flatsedge): 3 (equivalent to 2.6 to 5% of the weed in the blank control area)

From patent US20220330549A1, “USE OF N-BENZYLBENZAMIDE-BASED COMPOUND AS HERBICIDE” (Northwest A&F University, priority 2020, published 2022)
